The Deep4Chem optical property database
Values belong to the compound of their own block, whether it stands above or below them.

Experiment: solvent given as SMILES

Structure (SMILES): C(=C\c1ccc(/C=C/c2ccc(N(c3ccccc3)c3ccccc3)cc2)cc1)/c1ccc(/C=C/c2ccc(N(c3ccccc3)c3ccccc3)cc2)cc1
emission maximum (in ClCCl): 510 nm

Structure (SMILES): CCC1=C(C)C2=Cc3cccn3[B-](F)(F)[N+]2=C1C
emission maximum (in C1CCCCC1): 517.5 nm
emission maximum (in CC(C)=O): 516 nm
emission maximum (in CCO): 517 nm
emission maximum (in CCOC(C)=O): 516.5 nm
emission maximum (in CO): 516.5 nm
emission maximum (in OCC(F)(F)F): 515.5 nm

Structure (SMILES): Oc1ccc(C2=N[N+]3=Cc4c(ccc5ccccc45)O[B-]3(c3ccc([B-]45OC(c6ccc(O)cc6)=N[N+]4=Cc4c(ccc6ccccc46)O5)cc3)O2)cc1 (stereo unspecified)
emission maximum (in C1CCOC1): 477 nm

Structure (SMILES): O=c1cccc2n1C[C@@H]1CNC[C@H]2C1
emission maximum (in CC#N): 380 nm

Structure (SMILES): COc1ccc(-c2csc(/C(C#N)=C/c3ccc(C#N)cc3)n2)cc1
emission maximum (in CC#N): 561 nm
emission maximum (in CCO): 555 nm
emission maximum (in CN(C)C=O): 570 nm
emission maximum (in Cc1ccccc1): 519 nm
emission maximum (in ClCCl): 554 nm

Structure (SMILES): CC1=C(c2ccc(N(c3ccccc3)c3ccccc3)cc2)C(C)=[N+]2C1=C(c1c(-c3ccccn3)nc3ccccn13)c1c(C)c(-c3ccc(N(c4ccccc4)c4ccccc4)cc3)c(C)n1[B-]2(F)F
emission maximum (in ClCCl): 709 nm

Structure (SMILES): COc1ccc(C2=[N+]3C(=Nc4c(-c5cc(OC)c(OC)c(OC)c5)cc(-c5ccc(OC)cc5)n4[B-]3(F)F)C(c3cc(OC)c(OC)c(OC)c3)=C2)cc1
emission maximum (in Cc1ccccc1): 724 nm

Structure (SMILES): CCCCCCCCC1(CCCCCCCC)c2cc3c(cc2-c2sc(-c4ccc(/C=C5\SC(SCC)=NC5=O)c5nsnc45)cc21)C(CCCCCCCC)(CCCCCCCC)c1cc(-c2ccc(/C=C4\SC(SCC)=NC4=O)c4nsnc24)sc1-3
emission maximum (in ClC(Cl)Cl): 718 nm

Structure (SMILES): CCCCCCCCC1(CCCCCCCC)c2cc(C#CC#Cc3ccc(N(c4ccccc4)c4ccccc4)cc3)ccc2-c2ccc(C=O)cc21
emission maximum (in C1CCOC1): 498 nm
emission maximum (in C1COCCO1): 448 nm
emission maximum (in CC#N): 525 nm
emission maximum (in CC(C)=O): 541 nm
emission maximum (in CCCCCC): 422 nm
emission maximum (in CCOC(C)=O): 500 nm
emission maximum (in CN(C)C=O): 523 nm
emission maximum (in CS(C)=O): 540 nm
emission maximum (in Cc1ccccc1): 442 nm
emission maximum (in ClC(Cl)Cl): 500 nm
emission maximum (in ClCCl): 520 nm

Structure (SMILES): N#Cc1cc(N2c3ccccc3Sc3ccccc32)c(N2c3ccccc3Sc3ccccc32)cc1C#N
emission maximum (in c1ccc2c(c1)c1ccccc1n2-c1ccc(-c2ccc(-n3c4ccccc4c4ccccc43)cc2)cc1): 605 nm

Structure (SMILES): CCC1(CC)c2ccccc2-c2c1c1c(c3c2C(CC)(CC)c2cc(B(c4c(C)cc(C)cc4C)c4c(C)cc(C)cc4C)ccc2-3)C(CC)(CC)c2cc(B(c3c(C)cc(C)cc3C)c3c(C)cc(C)cc3C)ccc2-1
emission maximum (in C1CCOC1): 387 nm
emission maximum (in CC#N): 398 nm
emission maximum (in CC(C)=O): 394 nm
emission maximum (in CCCCCC): 378 nm
emission maximum (in ClC(Cl)Cl): 387 nm

Structure (SMILES): c1ccc(-n2c(-c3ccc([Si](c4ccc(-c5nc6ccccc6n5-c5ccccc5)cc4)(c4ccc(-c5nc6ccccc6n5-c5ccccc5)cc4)c4ccc(-c5nc6ccccc6n5-c5ccccc5)cc4)cc3)nc3ccccc32)cc1
emission maximum (in ClCCl): 363 nm

Structure (SMILES): F[B-]1(F)n2cccc2C(c2ccc(-c3c4ccccc4c(-c4ccccc4)c4ccccc34)cc2)=C2C=CC=[N+]21
emission maximum (in CC#N): 516 nm
emission maximum (in CCCCCC): 517 nm
emission maximum (in CCO): 516 nm
emission maximum (in CN(C)C=O): 520 nm
emission maximum (in Cc1ccccc1): 524 nm
emission maximum (in ClCCl): 518 nm

Structure (SMILES): c1ccc(-c2nc(-c3ccccc3)nc(-c3ccc(-n4c5ccc(-c6ccc7oc8ccccc8c7c6)cc5c5cc(-c6ccc7oc8ccccc8c7c6)ccc54)cc3)n2)cc1
emission maximum (in CCOC(C)=O): 476 nm
emission maximum (in CN(C)C=O): 529 nm
emission maximum (in Cc1ccccc1): 437 nm

Structure (SMILES): N#Cc1c(-n2c3ccccc3c3cc(I)ccc32)c(-n2c3ccccc3c3cc(I)ccc32)c(C#N)c(-n2c3ccccc3c3cc(I)ccc32)c1-n1c2ccccc2c2cc(I)ccc21
emission maximum (in Cc1ccccc1): 548 nm

Structure (SMILES): CC(C)(C)c1ccc(C2=c3c(c4ccc(C(C)(C)C)cc4c4cc(C(C)(C)C)ccc34)=[N+]3C2=C(c2ccccc2)c2c(-c4ccc(C(C)(C)C)cc4)c4c5ccc(C(C)(C)C)cc5c5cc(C(C)(C)C)ccc5c4n2[B-]3(F)F)cc1
emission maximum (in C1CCCCC1): 711 nm
emission maximum (in C1CCOC1): 712 nm
emission maximum (in CC#N): 706 nm
emission maximum (in Cc1ccccc1): 714 nm
emission maximum (in ClCCl): 712 nm

Structure (SMILES): N#Cc1nn(-c2ccccc2Cl)nc1N1CCCC1
emission maximum (in CC#N): 426 nm

Structure (SMILES): O=C(c1ccncc1)c1ccc(-n2c3ccc(-n4c5ccccc5c5ccccc54)cc3c3cc(-n4c5ccccc5c5ccccc54)ccc32)cc1
emission maximum (in C1CCOC1): 532.75 nm
emission maximum (in Cc1ccccc1): 481.09 nm
emission maximum (in c1cc(-c2cccc(-n3c4ccccc4c4ccccc43)c2)cc(-n2c3ccccc3c3ccccc32)c1): 487.5 nm

Structure (SMILES): c1ccc(-c2nn(-c3ccccc3)c3nc4ccc(N(c5ccccc5)c5cccc6ccccc56)cc4cc23)cc1
emission maximum (in C1CCCCC1): 484.73 nm
emission maximum (in C1CCOC1): 516 nm
emission maximum (in CC#N): 555.25 nm
emission maximum (in CC(C)=O): 538.21 nm
emission maximum (in CCCCCl): 509.68 nm
emission maximum (in CCCCOCCCC): 494.8 nm
emission maximum (in CN(C)C=O): 553.1 nm

Structure (SMILES): N#Cc1c(C#N)c2cc(Cl)c(Cl)cc2c2cc(Cl)c(Cl)cc12
emission maximum (in ClC(Cl)Cl): 412 nm

Structure (SMILES): Cc1c(C)c(-c2ccc(-c3cccnc3)cc2)c(C)c(C)c1B(c1c(C)c(C)c(-c2ccc(-c3cccnc3)cc2)c(C)c1C)c1c(C)c(C)c(-c2ccc(-c3cccnc3)cc2)c(C)c1C
emission maximum (in ClCCl): 404 nm

Further lines, results first:

emission maximum (in CO): 705 nm
emission maximum (in O): 708 nm
Structure (SMILES): CN(C)c1ccc2c(c1)C(C)(C)C1=CC(=[N+](C)C)C=CC1=C2C#Cc1ccccc1

emission maximum (in ClC(Cl)Cl): 544 nm
Structure (SMILES): Cc1c2c(c(C)c3ccccc13)C1=C2C=CC2Nc3ccccc3NC12 (stereo unspecified)

emission maximum (in C1CCCCC1): 650 nm
emission maximum (in CCOC(C)=O): 670 nm
Structure (SMILES): CC1=[N+]2C(=C(c3cccs3)c3ccc(C)n3[B-]2(F)F)C=C1c1cc2n(c1)[B-](F)(F)[N+]1=CC=CC1=C2c1c(C)cc(C)cc1C

emission maximum (in CCO): 433 nm
emission maximum (in ClCCl): 436 nm
Structure (SMILES): c1cnc(-c2c3ccccc3c(-c3cncnc3)c3ccccc23)nc1

emission maximum (in C1CCCCC1): 406 nm
emission maximum (in C1CCOC1): 408 nm
emission maximum (in C1COCCO1): 410 nm
emission maximum (in CC#N): 426 nm
emission maximum (in CCOC(C)=O): 410 nm
emission maximum (in CN(C)C=O): 425 nm
emission maximum (in CO): 428 nm
emission maximum (in ClC(Cl)Cl): 426 nm
Structure (SMILES): O=C(O)c1ccccc1Nc1cccc(C(F)(F)F)c1

emission maximum (in ClC(Cl)Cl): 368 nm
Structure (SMILES): CCCCCCCCC1(CCCCCCCC)c2cc(-c3ccc([Si](C)(C)C)cc3)ccc2-c2ccc(-c3ccc([Si](C)(C)C)cc3)cc21

emission maximum (in ClCCl): 501 nm
Structure (SMILES): CCN(CC)c1ccc2c(c1)oc(=O)c1cc3cnn(-c4ccccc4)c3nc12

emission maximum (in ClCCl): 756 nm
Structure (SMILES): Cc1ccc(/N=C2/C3=c4[nH]c5ccccc5c4=[N+](c4ccc(C)cc4)[B-](F)(F)N3c3ccccc32)cc1

emission maximum (in ClCCl): 397 nm
Structure (SMILES): COc1ccc2c(c1)-c1cc3c(cc1[Si]2(c1ccccc1)c1ccccc1)-c1ccccc1[Si]3(c1ccccc1)c1ccccc1

emission maximum (in ClCCl): 494 nm
Structure (SMILES): CCN(CC)c1ccc2cc(-c3nc4cc(C(=O)Nc5cccc(OC)c5)ccc4o3)c(=O)oc2c1

emission maximum (in ClCCl): 642 nm
Structure (SMILES): CN(C)c1ccc(C2=Nc3ccc4c(C(F)(F)F)cc(C(F)(F)F)nc4[n+]3[B-](F)(F)O2)cc1

emission maximum (in CCO): 530 nm
emission maximum (in ClCCl): 526 nm
emission maximum (in O): 563 nm
Structure (SMILES): O=Cc1ccc(-c2ccc(-c3nc4ccccc4s3)c(O)c2)o1

emission maximum (in CC#N): 462 nm
emission maximum (in ClCCl): 462 nm
Structure (SMILES): COC(=O)c1cc(=O)n(C)c2cc(-c3ccccc3)sc12

emission maximum (in O): 562 nm
Structure (SMILES): CN1/C(=C/C=C/C2=[N+](CCCCCC(=O)O)c3ccc(S(=O)(=O)[O-])cc3C2(C)C)C(C)(C)c2cc(S(=O)(=O)[O-])ccc21

emission maximum (in ClCCl): 425 nm
Structure (SMILES): c1ccc(C2c3ccc4ccc5ccccc5c4c3-c3c2ccc2ccc4ccccc4c32)cc1

emission maximum (in ClC(Cl)Cl): 519 nm
Structure (SMILES): N#CC1=CC(Br)=CC(C#N)=P1(c1ccccc1)c1ccccc1

emission maximum (in O): 438 nm
Structure (SMILES): O=C(O)CCCCCNC(=O)c1cccc2c(=O)c3ccccc3[nH]c12

emission maximum (in CCCCCC): 620 nm
emission maximum (in CCCCCCCCO): 629 nm
emission maximum (in CCOC(C)=O): 623 nm
emission maximum (in CN(C)C=O): 630 nm
emission maximum (in ClCCl): 633 nm
Structure (SMILES): COc1ccc(C#Cc2c3ccccc3c3n2[B-](F)(F)[N+]2=C(C)C=C(C)C2=C3)cc1

emission maximum (in ClCCl): 557 nm
Structure (SMILES): CCCCN(CCCC)c1ccc(C#Cc2cc(C#Cc3ccc([N+](=O)[O-])cc3)c(C#Cc3ccc(N(CCCC)CCCC)cc3)cc2C#Cc2ccc([N+](=O)[O-])cc2)cc1

emission maximum (in CCO): 558 nm
emission maximum (in ClCCl): 553 nm
emission maximum (in O): 574 nm
Structure (SMILES): O=Cc1ccc(-c2ccc(O)c(-c3nc4ccccc4s3)c2)s1

emission maximum (in ClCCl): 478 nm
Structure (SMILES): COC(=O)c1[nH]c(-c2ccccc2)c2nnc3ccsc3c12

emission maximum (in CC#N): 599 nm
emission maximum (in ClCCl): 554 nm
Structure (SMILES): COC(=O)c1cc(=O)n(C)c2cc(-c3ccc(N(C)C)cc3)sc12

emission maximum (in C1CCCCC1): 451 nm
emission maximum (in C1CCOC1): 513 nm
emission maximum (in CC#N): 453 nm
emission maximum (in CO): 454 nm
emission maximum (in CS(C)=O): 530 nm
emission maximum (in ClCCl): 452 nm
emission maximum (in O): 452 nm
Structure (SMILES): CC1=N/C(=C\c2ccccc2N)C(=O)N1C

emission maximum (in CO): 630 nm
Structure (SMILES): CCN(CC)c1ccc(C=Cc2nc3nc4ccccc4nc3s2)cc1

emission maximum (in ClCCl): 620 nm
Structure (SMILES): CN(c1ccccc1)c1ccc(N(c2ccccc2)c2ccc3ccc4c(N(c5ccccc5)c5ccc(N(C)c6ccccc6)cc5)ccc5ccc2c3c54)cc1

emission maximum (in ClCCl): 401 nm
Structure (SMILES): CCCCN1c2ccccc2B(c2ccccc2C(F)(F)F)c2ccccc21

emission maximum (in ClCCl): 477 nm
Structure (SMILES): COc1ccc(-c2cc3c(ccc4sc5ccc6sc(-c7ccc(C(C)=O)cc7)cc6c5c43)s2)cc1

emission maximum (in C1CCCCC1): 312 nm
Structure (SMILES): CC(C)(C)c1ccc(-c2ccc(C(C)(C)C)cc2)cc1

emission maximum (in CCCCCC): 380 nm
emission maximum (in CO): 380 nm
emission maximum (in ClCCl): 381 nm
Structure (SMILES): CC(C)c1ccc2ccc3c(C(C)C)ccc4ccc1c2c43

emission maximum (in ClCCl): 498 nm
Structure (SMILES): C[Si]1(C)O[Si](C)(C)c2cc3c(-c4ccccc4F)c4cc(Cl)ccc4nc3cc21
